Some results are limits rather than exact numbers.

One test concerns HCT-116. In words: Cytotoxicity against Homo sapiens (human) HCT116 cells after 72 hr by MTT assay. The test is classed as functional, cell-based. The following applies: HCT-116, 72 h, read-out: pIC50 (converted). A general note: Tetrazolium assays rely on reduction of a dye to a coloured formazan, in cell work by metabolically active cells.
Test [1] concerns Escherichia coli. In words: Antibacterial activity against Escherichia coli MTCC 1652 after 24 hr by tube dilution method. The test is classed as functional.
Test [2] has as its system Escherichia coli. In words: Bactericidal activity against Escherichia coli MTCC 1652. The format is functional.
Test [3] has as its system Bacillus subtilis. In words: Bactericidal activity against Bacillus subtilis MTCC 2063. The format is functional.
Test [4] has as its system Candida albicans. In words: Fungicidal activity against Candida albicans MTCC 227. The format is functional.
In test [5] the test system is Aspergillus niger. In words: Antifungal activity against Aspergillus niger MTCC 8189 after 7 days by tube dilution method. The test is classed as functional.
In test [6] the test system is Aspergillus niger. In words: Fungicidal activity against Aspergillus niger MTCC 8189. The test is classed as functional.
Test [7] has as its system Staphylococcus aureus. In words: Bactericidal activity against Staphylococcus aureus MTCC 2901. The test is classed as functional.
Test [8] deals with Bacillus subtilis. In words: Antibacterial activity against Bacillus subtilis MTCC 2063 after 24 hr by tube dilution method. The format is functional.
The subject of test [9] is Candida albicans. In words: Antifungal activity against Candida albicans MTCC 227 after 48 hr by tube dilution method. The test is classed as functional.
The subject of test [10] is Staphylococcus aureus. In words: Antibacterial activity against Staphylococcus aureus MTCC 2901 after 24 hr by tube dilution method. The format is functional.
In a further test the test system is HT-29. In words: Cytotoxicity against Homo sapiens (human) HT-29 cells after 72 hr by MTT assay. The format is functional, cell-based. The following applies: HT-29, 72 h, read-out: pIC50 (converted).

In the case of `COc1cccc(/C=N/c2c(C)n(C)n(-c3ccccc3)c2=O)c1O`, the IC50 with HCT-116 was 89.1 µM. Further, the “-logMIC” value with Escherichia coli [1] was 1.43; with Aspergillus niger [5] it was 1.13; in the test on Bacillus subtilis [8], 1.13; with Candida albicans [9] it was 1.43; with Staphylococcus aureus [10] it was 1.13. For the same molecule, the MBC against Escherichia coli [2], in the test on Bacillus subtilis [3] and against Staphylococcus aureus [7] was over 0.15 uM/ml each time. Further, the MFC in the test with Candida albicans [4] and against Aspergillus niger [6] was over 0.15 uM/ml each time.
For the molecule `O=c1[nH]cc(F)c(=O)[nH]1` [FLUOROURACIL], the IC50 was 45.7 µM in the test with HCT-116 and 85.1 µM in the test with HT-29.
With `CCOc1cc(/C=N/c2c(C)n(C)n(-c3ccccc3)c2=O)ccc1O`, the “-logMIC” value is reported as 1.45 in the test on Escherichia coli [1]; 1.45 in the test on Aspergillus niger [5]; 1.15 in the test with Bacillus subtilis [8]; 1.45 in the test with Candida albicans [9]; 1.15 with Staphylococcus aureus [10]. Moreover, the MBC against Escherichia coli [2], against Bacillus subtilis [3] and in the test on Staphylococcus aureus [7] was over 0.14 uM/ml in each case. Besides, the MFC against Candida albicans [4] and in the test with Aspergillus niger [6] was over 0.14 uM/ml throughout.
Turning to `Cc1c(/N=C/c2ccc(Cl)cc2)c(=O)n(-c2ccccc2)n1C`, the “-logMIC” value with Escherichia coli [1] is reported as 1.12; in the test with Aspergillus niger [5] it was 1.42; in the test on Bacillus subtilis [8], 1.12; in the test on Candida albicans [9], 1.42; in the test with Staphylococcus aureus [10] it was 1.12. Moreover, the MBC against Escherichia coli [2], against Bacillus subtilis [3] and against Staphylococcus aureus [7] was over 0.15 uM/ml in each case. Further, the MFC in the test on Candida albicans [4] was over 0.15 uM/ml; in the test with Aspergillus niger [6], 0.15 uM/ml.
With `COc1cccc(/C=N/c2c(C)n(C)n(-c3ccccc3)c2=O)c1`, the “-logMIC” value in the test with Escherichia coli [1] amounted to 1.41; in the test on Aspergillus niger [5] it was 1.41; in the test with Bacillus subtilis [8] it was 1.11; in the test on Candida albicans [9], 1.41; in the test with Staphylococcus aureus [10], 1.11. Besides, the MBC in the test on Escherichia coli [2], with Bacillus subtilis [3] and against Staphylococcus aureus [7] was over 0.16 uM/ml in each case. In addition, the MFC was over 0.16 uM/ml against Candida albicans [4] and 0.16 uM/ml with Aspergillus niger [6].
As for `Cc1c(/N=C/c2ccccc2Cl)c(=O)n(-c2ccccc2)n1C`, the “-logMIC” value was 1.42 in the test on Escherichia coli [1]; 1.42 with Aspergillus niger [5]; 1.42 in the test with Bacillus subtilis [8]; 1.42 in the test with Candida albicans [9]; 1.12 with Staphylococcus aureus [10]. Moreover, the MBC against Escherichia coli [2], against Bacillus subtilis [3] and with Staphylococcus aureus [7] was over 0.15 uM/ml throughout. The MFC against Candida albicans [4] and against Aspergillus niger [6] was over 0.15 uM/ml each time.
Turning to `Cc1c(/N=C/c2ccccc2)c(=O)n(-c2ccccc2)n1C`, the “-logMIC” value in the test on Escherichia coli [1] is 1.37; in the test with Aspergillus niger [5] it was 1.37; with Bacillus subtilis [8] it was 1.07; in the test with Candida albicans [9], 1.37; with Staphylococcus aureus [10], 1.07. For the same molecule, the MBC in the test on Escherichia coli [2], in the test with Bacillus subtilis [3] and in the test with Staphylococcus aureus [7] was over 0.17 uM/ml in each case. Further, the MFC in the test on Candida albicans [4] and against Aspergillus niger [6] was over 0.17 uM/ml throughout.
On to `Cc1c(/N=C/c2ccc(Cl)cc2Cl)c(=O)n(-c2ccccc2)n1C`, for which the “-logMIC” value in the test on Escherichia coli [1] is recorded as 1.46; with Aspergillus niger [5], 1.46; in the test with Bacillus subtilis [8], 1.16; in the test with Candida albicans [9] it was 1.46; with Staphylococcus aureus [10], 1.16. Further, the MBC with Escherichia coli [2], with Bacillus subtilis [3] and against Staphylococcus aureus [7] was over 0.14 uM/ml in each case. The MFC against Candida albicans [4] and against Aspergillus niger [6] was over 0.14 uM/ml throughout.
In the case of `OC(Cn1cncn1)(Cn1cncn1)c1ccc(F)cc1F` [FLUCONAZOLE], the MFC in the test with Candida albicans [4] and in the test on Aspergillus niger [6] was 0.04 uM/ml in each case. The “-logMIC” value in the test with Aspergillus niger [5] and with Candida albicans [9] was 2.64 throughout.
`COc1ccccc1/C=N/c1c(C)n(C)n(-c2ccccc2)c1=O`: the “-logMIC” value with Escherichia coli [1], with Aspergillus niger [5], in the test with Bacillus subtilis [8], with Candida albicans [9] and in the test with Staphylococcus aureus [10] was 1.41 in each case. Moreover, the MBC with Escherichia coli [2], in the test with Bacillus subtilis [3] and with Staphylococcus aureus [7] was over 0.16 uM/ml in each case. The MFC in the test with Candida albicans [4] and against Aspergillus niger [6] was over 0.16 uM/ml each time. The IC50 with HT-29 is 70.8 µM.
For the molecule `COc1ccc(/C=N/c2c(C)n(C)n(-c3ccccc3)c2=O)cc1`, the “-logMIC” value in the test with Escherichia coli [1] is 1.41; in the test with Aspergillus niger [5], 1.41; with Bacillus subtilis [8] it was 1.11; in the test with Candida albicans [9], 1.41; with Staphylococcus aureus [10], 1.11. For the same molecule, the MBC in the test with Escherichia coli [2], in the test with Bacillus subtilis [3] and against Staphylococcus aureus [7] was over 0.16 uM/ml in each case. Besides, the MFC against Candida albicans [4] and in the test on Aspergillus niger [6] was over 0.16 uM/ml in each case.
`Cc1c(/N=C/c2cccc(Cl)c2)c(=O)n(-c2ccccc2)n1C`: the “-logMIC” value in the test on Escherichia coli [1] worked out at 2.02; in the test on Aspergillus niger [5], 1.42; with Bacillus subtilis [8] it was 1.72; in the test with Candida albicans [9], 2.02; in the test with Staphylococcus aureus [10], 1.72. The MBC against Escherichia coli [2], with Bacillus subtilis [3] and against Staphylococcus aureus [7] was over 0.15 uM/ml each time. The MFC in the test with Candida albicans [4] and with Aspergillus niger [6] was over 0.15 uM/ml throughout.
For `Cc1c(/N=C/c2cccc(O)c2)c(=O)n(-c2ccccc2)n1C`, the “-logMIC” value with Escherichia coli [1] is recorded as 1.39; with Aspergillus niger [5], 1.39; with Bacillus subtilis [8], 1.39; in the test with Candida albicans [9], 1.39; in the test on Staphylococcus aureus [10], 1.09. Further, the MBC against Escherichia coli [2], against Bacillus subtilis [3] and against Staphylococcus aureus [7] was over 0.16 uM/ml throughout. The MFC in the test on Candida albicans [4] and with Aspergillus niger [6] was over 0.16 uM/ml in each case.
With `Cc1c(/N=C/c2ccc(O)cc2)c(=O)n(-c2ccccc2)n1C`, the “-logMIC” value is 1.39 in the test on Escherichia coli [1]; 1.69 in the test with Aspergillus niger [5]; 1.39 in the test with Bacillus subtilis [8]; 1.39 in the test with Candida albicans [9]; 1.39 in the test with Staphylococcus aureus [10]. In addition, the MBC in the test on Escherichia coli [2], against Bacillus subtilis [3] and in the test on Staphylococcus aureus [7] was over 0.16 uM/ml throughout. In addition, the MFC with Candida albicans [4] and against Aspergillus niger [6] was over 0.16 uM/ml in each case.
Turning to `COc1cc(/C=N/c2c(C)n(C)n(-c3ccccc3)c2=O)cc(OC)c1OC`, the “-logMIC” value in the test on Escherichia coli [1], in the test on Aspergillus niger [5], in the test on Bacillus subtilis [8], in the test with Candida albicans [9] and in the test with Staphylococcus aureus [10] was 1.48 in each case. Further, the MBC in the test with Escherichia coli [2], in the test on Bacillus subtilis [3] and against Staphylococcus aureus [7] was over 0.13 uM/ml in each case. For the same molecule, the MFC is on record as over 0.13 uM/ml against Candida albicans [4] and 0.13 uM/ml in the test on Aspergillus niger [6].
Regarding `CCn1cc(C(=O)O)c(=O)c2cc(F)c(N3CCNCC3)cc21` [NORFLOXACIN], the “-logMIC” value in the test with Escherichia coli [1], with Bacillus subtilis [8] and in the test with Staphylococcus aureus [10] was 2.61 in each case. Besides, the MBC with Escherichia coli [2], with Bacillus subtilis [3] and in the test with Staphylococcus aureus [7] was 0.019 uM/ml throughout.
In the case of `Cc1c(/N=C/c2cccc([N+](=O)[O-])c2)c(=O)n(-c2ccccc2)n1C`, the “-logMIC” value is reported as 1.43 in the test on Escherichia coli [1]; 1.43 in the test on Aspergillus niger [5]; 1.43 in the test on Bacillus subtilis [8]; 1.43 with Candida albicans [9]; 1.13 in the test on Staphylococcus aureus [10]. The MBC with Escherichia coli [2], in the test with Bacillus subtilis [3] and in the test on Staphylococcus aureus [7] was over 0.15 uM/ml throughout. Also, the MFC against Candida albicans [4] and with Aspergillus niger [6] was over 0.15 uM/ml throughout.
For the molecule `COc1ccc(/C=N/c2c(C)n(C)n(-c3ccccc3)c2=O)cc1OC`, the “-logMIC” value in the test with Escherichia coli [1] turned out to be 1.45; with Aspergillus niger [5] it was 1.45; in the test on Bacillus subtilis [8] it was 1.15; with Candida albicans [9] it was 1.45; in the test with Staphylococcus aureus [10] it was 1.15. The MBC in the test with Escherichia coli [2], against Bacillus subtilis [3] and against Staphylococcus aureus [7] was over 0.14 uM/ml throughout. The MFC in the test with Candida albicans [4] and against Aspergillus niger [6] was over 0.14 uM/ml each time.

Values taken from ChEMBL document CHEMBL3046140, “Design, synthesis, antimicrobial, anticancer evaluation, and QSAR studies of 4-(substituted benzylidene-amino)-1,5-dimethyl-2-phenyl-1,2-dihydropyrazol-3-ones” (Med Chem Res, 2012).
